Source: patent publication US12115154B2, “Compounds for the modulation of proprotein convertase subtilisin/kexin type 9 (PCSK9)” (SRX Cardio, LLC, priority 2020, dated 2024)

Experiments:
Male C57BL/6 mice [1] = assay: In vivo efficacy: serum LDL in high fat diet mice; details: for reduction in LDL: daily PO 15 mg/kg
Description: (§1) A representative compound (Compound 1041) was tested for oral bioavailability and efficacy in mice. Male C57BL/6 mice were purchased from Taconic Biosciences (Rensselaer, New York) and housed under standard conditions with the exception of being provided a high fat diet (#TD.90221, Envigo, Madison, Wis.) and water ad libitum. Following 4 weeks of diet acclimation the animals were then dosed with compound or vehicle as control specimens. Compound readily dissolved at 1.5 mg/ml in a 1% Tween-80 aqueous solution with 10-15 minutes sonication. This solution was used at the 1.5 mg/ml concentration for oral (PO) dosing or further diluted with sterile saline for intravenous (IV) dosing.
[…] Plasma samples were collected at 0.25, […], 1, 2, 3, 6, 8, 24, and 48 hours while liver specimens were collected at 8, 24, and 48 hours and drug concentration were measured by LC-MS/MS per standard protocols.
Serum lipid levels were measured using commercially available veterinary health testing services provided by IDEXX BioAnalytics (North Grafton, Mass.). Blood specimens were collected from the animals and the resulting serum was frozen and stored at −80° C. until analysis. Specimens were measured using the commercial service's standard procedures for the Rodent Lipid Panel (Test Code #6290).

Male C57BL/6 mice [2] = assay: Liver panel (animal health) in high fat diet mice; type: in vivo
Description: as §1
To assess animal health following compound exposure, a liver panel (Test Code #60405) was tested by IDEXX BioAnalytics (North Grafton, Mass.). […] Also of note, AST and ALT levels in the liver panel were elevated in the PO vehicle, which is attributed to the high fat diet used in the study (Envigo, #TD.90221).

[3] = In vivo PK in mice (IV and PO); details: male, C57BL/6, mouse, plasma, 3 mg/kg IV versus 15 mg/kg PO, read-out: oral bioavailability (F %)
Description: as §1
Test animals received a single dose at 3 mg/kg by IV or 15 mg/kg by PO while control animals received an equal volume of vehicle control by IV or PO, respectively. Plasma samples were collected at 0.25, […], 1, 2, 3, 6, 8, 24, and 48 hours while liver specimens were collected at 8, 24, and 48 hours and drug concentration were measured by LC-MS/MS per standard protocols.
In brief, blood was immediately centrifuged, and the resulting plasma was frozen and stored at −80° C. until analysis. […] Compound concentrations were determined by a liquid chromatography-mass tandem spectrometry (LC-MS/MS) per routine method (Quintana Discovery, Hayward, Calif.) following the standard protocol. […]

[4] = Dissolution in dosing solution; type: physicochemical; details: 1% Tween-80 aqueous solution, 10-15 minutes sonication
Description: as §1

PCSK9 = target: T1, PCSK9 (Homo sapiens, UniProt Q8NBP7); assay: Biodesy Direct Binding Measurement (second harmonic generation); details: Biodesy Delta System
T1 construct: purchased Cayman Chemical 20631; host or cells: added to HepG2, HuH7, FL83B or shPCSK9 knock-down lines
Text: The compounds of the present disclosure may be tested for binding to, inhibition of, and/or modulation of PCSK9 activity according to the following protocols.
Direct binding can be measured using the commercially available Biodesy Delta System (BDS, http://www.biodesy.com/products/; accessed Aug. 1, 2018). The BDS is a laser-based approach that utilizes second harmonic generation from a labeled protein to detect ligand binding, the method of which is covered and described by U.S. Pat. Nos. 9,395,358 and 8,932,822, and has been commercialized by Biodesy Inc. (South San Francisco, Calif.).

[5] = daily 15 mg/kg PO, 72-hour group, versus vehicle control

T1 sequence (Q8NBP7 153-692): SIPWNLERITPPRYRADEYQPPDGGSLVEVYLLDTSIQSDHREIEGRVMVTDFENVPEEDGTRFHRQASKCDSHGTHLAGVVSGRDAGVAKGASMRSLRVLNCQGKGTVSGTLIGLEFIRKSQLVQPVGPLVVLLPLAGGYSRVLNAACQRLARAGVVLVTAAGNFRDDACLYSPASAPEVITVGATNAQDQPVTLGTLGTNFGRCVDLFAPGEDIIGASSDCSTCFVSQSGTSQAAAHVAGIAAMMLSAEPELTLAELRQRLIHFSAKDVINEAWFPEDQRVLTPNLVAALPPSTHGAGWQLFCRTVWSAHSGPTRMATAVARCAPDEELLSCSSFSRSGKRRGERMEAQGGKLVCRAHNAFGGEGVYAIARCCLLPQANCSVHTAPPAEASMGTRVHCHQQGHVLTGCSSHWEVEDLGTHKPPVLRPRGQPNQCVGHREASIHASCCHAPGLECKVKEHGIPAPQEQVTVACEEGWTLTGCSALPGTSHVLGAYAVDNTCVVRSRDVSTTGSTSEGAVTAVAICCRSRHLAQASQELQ

Cc1cc(-c2ccc(F)cc2)ccc1C1CCCN(C2CCCC2)C1 (stereo not shown) [Compound 1.041, 1-cyclopentyl-3-(4′-fluoro-3-methyl-[1,1′-biphenyl]-4-yl)piperidine]
reduction in LDL (Male C57BL/6 mice [1]; at 48 hours (dosed at t=0 and t=24 hours)): 32% | reduction in LDL (Male C57BL/6 mice [1]; at 72 hours (dosed at t=0, t=24, t=48 hours)): 50% | reduction in LDL relative to IV vehicle control group (Male C57BL/6 mice [1]; single 3 mg/kg IV dose, 48 hours after dosing): 19% | reduction in LDL relative to PO vehicle control group (Male C57BL/6 mice [1]; single 15 mg/kg PO dose, 48 hours after dosing): 32% | reduction in ALT levels (Male C57BL/6 mice [2]; [5]): 77.7% | reduction in AST levels (Male C57BL/6 mice [2]; [5]): 72.1% | liver panel toxicity (Male C57BL/6 mice [2]; three daily 15 mg/kg PO doses, 72 hours, versus PO vehicle): no overt toxicity | bioavailability [3]: 44% | concentration readily dissolved [4]: ≥ 1500 µg/mL

Fc1ccc(-c2ccc(C3CCCN(CC4CC4)C3)cc2)cc1 (stereo not shown) [Compound 1.001, 1-(cyclopropylmethyl)-3-(4′-fluoro-[1,1′-biphenyl]-4-yl)piperidine]
ASHG (PCSK9): > 10%
